Experimental data from patent publication US4215143A (Mitsui Toatsu Chemicals, Incorporated, priority 1978, dated 1980).

How the values were obtained:
Gastric Juice Acidity = experiment: Effect on gastric juice acidity in pylorus-ligated rats; type: in vivo, Male rats of the Donryu strain; details: 250 mg/kg, p.o.; 4 hours; control 92.5 ± 3.7; * significant vs control at the 5% level
Description: (§1) Male rats of the Donryu strain, 11 weeks of age, were used in groups of ten. After 24 hours of fasting, the pylorus was ligated. Four hours later, the gastric juice was collected and its volume was measured. Then, its acidity was determined by titrating an aliquot of the gastric juice with 0.05 N sodium hydroxide. Further, the activity of pepsin was determined by Anson's method. A definite amount (250 mg/kg) of a compound to be tested was orally administered immediately after the ligation of the pylorus.

pepsin = experiment: Effect on pepsin activity in pylorus-ligated rats (Anson's method); type: in vivo, Male rats of the Donryu strain; details: 250 mg/kg, p.o.; 4 hours; control 7.4 ± 0.5; ** significant vs control at the 1% level
Description: as §1

Gastric Juice Secretion = experiment: Effect on gastric juice secretion in pylorus-ligated rats; type: in vivo, Male rats of the Donryu strain; details: 250 mg/kg, p.o.; 4 hours; control 4.9 ± 0.4; * significant vs control at the 5% level
Description: as §1

Aspirin Ulcer = experiment: Aspirin Ulcer, anti-ulcer effect; type: in vivo, Male rats of the Donryu strain; details: p.o., aspirin 250 mg/kg oral, 6 hours
Description: (§2) The anti-ulcer effect of some compounds of this invention was evaluated with regard to various types of experimental gastric and duodenal ulcers. The method of evaluation for each type of ulcer is outlined below.
Male rats of the Donryu strain, 10 or 11 weeks of age, were used in groups of ten. After 24 hours of fasting, a certain amount of a compound to be tested was orally administered to each animal of a group. Ten minutes later, aspirin was orally administered in a dose of 250 mg/kg. After 6 hours, the size of the ulcer formed in the glandular part of the stomach was rated by visual inspection and regarded as an ulcer index (U.I.). The results are also expressed in terms of the percentage of inhibition based on the U.I. obtained in the control group receiving no compounds to be tested.

Shay's Ulcer = Shay's Ulcer (pylorus ligation), anti-ulcer effect; type: in vivo, Male rats of the Wistar strain; details: p.o., 12 hours, vs control group
Description: The anti-ulcer effect of some compounds of this invention was evaluated with regard to various types of experimental gastric and duodenal ulcers. The method of evaluation for each type of ulcer is outlined below. Male rats of the Wistar strain, 7 or 8 weeks of age, were used in groups of ten. After 48 hours of fasting, the pyloric part of the stomach was ligated under ether anesthesia. Immediately after the operation, a certain amount of a compound to be tested was orally administered to each animal of a group. After 12 hours, the degree of ulceration occurring in the anterior part of the stomach was rated and regarded as an ulcer index (U.I.). Control rats were treated in the same manner as described above, except that they received no compounds to be tested. The results given in Table 1 are expressed in terms of the percentage of inhibition based on the U.I. obtained in the control group.

Acetic Acid Ulcer = experiment: Acetic Acid Ulcer, healing promotion effect; type: in vivo, Male rats of the Wistar strain; details: p.o., twice a day for 7 days
Description: as §2
Male rats of the Wistar strain, 6 weeks of age, were used in groups of ten. Under ether anesthesia, each animal was laparotomized, a round frame (with an inside diameter of 5 mm) made of stainless steel was applied to the anterior wall of the stomach, and 100% acetic acid was poured into the frame. After 30 seconds, the acetic acid was removed and the abdomen was closed. Starting on the 7th day after the operation, a certain amount of a compound to be tested was orally administered twice a day to each animal of a group for a period of 7 days. Thereafter, the degree of healing of the ulcer was rated by visual insepction and regarded as an ulcer index (U.I.). The results are also expressed in terms of the percentage of healing based on the U.I. obtained in the control group receiving no compounds to be tested.

Stress Ulcer = Stress Ulcer (water immersion restraint), anti-ulcer effect; type: in vivo, Male rats of the Wistar strain; details: 250 mg/kg, p.o.; stress for 16 hours; vs control group
Description: The anti-ulcer effect of some compounds of this invention was evaluated with regard to various types of experimental gastric and duodenal ulcers. The method of evaluation for each type of ulcer is outlined below. Male rats of the Wistar strain, 8 weeks of age, were used in groups of ten. Each animal was immobilized in a stressing cage as developed by Takagi et al., immersed in water at 23° C. to the level of the xiphoid process, and thereby subjected to stress for 16 hours. Thereafter, the stomach was excised. The length of the ulcer formed in the glandular part of the stomach was measured and regarded as an ulcer index (U.I.). A certain amount of a compound to be tested was orally administered just before subjecting the animal to stress. The results are also expressed in terms of the percentage of inhibition based on the U.I. obtained in the control group receiving no compounds to be tested.

Substance | Acidity of Gastric Juice (Gastric Juice Acidity) [mEq/l] | Activity of Pepsin (pepsin) [mg/mL] | Amount of Gastric Juice Secreted (Gastric Juice Secretion) [mL] | percentage of inhibition (ulcer index, Aspirin Ulcer) (Aspirin Ulcer; 100 mg/kg) [percentage] | percentage of inhibition (ulcer index, Aspirin Ulcer) (Aspirin Ulcer; 250 mg/kg) [percentage] | percentage of inhibition (ulcer index, Shay's Ulcer) (Shay's Ulcer; 100 mg/kg) [percentage] | percentage of inhibition (ulcer index, Shay's Ulcer) (Shay's Ulcer; 250 mg/kg) [percentage] | percentage of healing (ulcer index, Acetic Acid Ulcer) (Acetic Acid Ulcer; 100 mg/kg) [percentage] | percentage of healing (ulcer index, Acetic Acid Ulcer) (Acetic Acid Ulcer; 250 mg/kg) [percentage] | percentage of inhibition (ulcer index, Stress Ulcer) (Stress Ulcer) [percentage]
inositol hexasulfate aluminum salt | 57.8 ± 12.9 | 4.8 ± 0.4 | 3.6 ± 0.4 | – | – | – | – | – | – | –
inositol hexasulfate sodium aluminum salt | 61.1 ± 11.4 | 5.1 ± 0.5 | 3.6 ± 0.4 | 42 | 49 | 87 | 90 | 23 | 28 | 30
